Assays:
monoubiquitinated PCNA = assay: AlphaLISA assay measuring monoubiquitinated PCNA in MDA-MB-436; assay type: cell-based; conditions: Homo sapiens, MDA-MB-436, monoubiquitinated PCNA, read-out: Alpha Lisa IC50
From the text: Table 1 also indicates IC50 values for exemplary compounds in an AlphaLISA assay measuring monoubiquitinated PCNA in a BRCA1 mutant cell line (MDA-MB-436; column 7).

USP1-UAF1 = USP1-UAF1 (Homo sapiens, UniProt O94782); assay: Ubiquitin Rhodamine assay of USP1-UAF1 activity; assay type: biochemical
Sequence of USP1-UAF1 (O94782 whole entry): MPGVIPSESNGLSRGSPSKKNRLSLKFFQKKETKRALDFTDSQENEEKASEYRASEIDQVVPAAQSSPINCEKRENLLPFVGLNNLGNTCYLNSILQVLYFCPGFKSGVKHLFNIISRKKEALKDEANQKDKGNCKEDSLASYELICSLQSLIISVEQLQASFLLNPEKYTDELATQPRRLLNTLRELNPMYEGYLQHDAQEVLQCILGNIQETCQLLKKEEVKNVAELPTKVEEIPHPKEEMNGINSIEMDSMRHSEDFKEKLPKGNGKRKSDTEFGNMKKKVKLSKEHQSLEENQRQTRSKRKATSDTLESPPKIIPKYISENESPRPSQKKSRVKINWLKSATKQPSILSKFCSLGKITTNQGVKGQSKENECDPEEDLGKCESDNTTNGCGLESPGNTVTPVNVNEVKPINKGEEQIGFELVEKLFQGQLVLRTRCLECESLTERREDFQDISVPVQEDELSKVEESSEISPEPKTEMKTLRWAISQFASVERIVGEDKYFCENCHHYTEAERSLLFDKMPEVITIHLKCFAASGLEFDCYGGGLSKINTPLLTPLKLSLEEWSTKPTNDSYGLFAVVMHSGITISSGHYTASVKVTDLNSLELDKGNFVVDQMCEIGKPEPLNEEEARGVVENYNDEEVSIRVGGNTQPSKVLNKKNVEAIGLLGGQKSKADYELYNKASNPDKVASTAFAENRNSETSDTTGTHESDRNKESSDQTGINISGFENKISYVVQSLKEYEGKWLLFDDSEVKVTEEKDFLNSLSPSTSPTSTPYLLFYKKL
Sequence of USP1-UAF1 (Q8TAF3 whole entry partner): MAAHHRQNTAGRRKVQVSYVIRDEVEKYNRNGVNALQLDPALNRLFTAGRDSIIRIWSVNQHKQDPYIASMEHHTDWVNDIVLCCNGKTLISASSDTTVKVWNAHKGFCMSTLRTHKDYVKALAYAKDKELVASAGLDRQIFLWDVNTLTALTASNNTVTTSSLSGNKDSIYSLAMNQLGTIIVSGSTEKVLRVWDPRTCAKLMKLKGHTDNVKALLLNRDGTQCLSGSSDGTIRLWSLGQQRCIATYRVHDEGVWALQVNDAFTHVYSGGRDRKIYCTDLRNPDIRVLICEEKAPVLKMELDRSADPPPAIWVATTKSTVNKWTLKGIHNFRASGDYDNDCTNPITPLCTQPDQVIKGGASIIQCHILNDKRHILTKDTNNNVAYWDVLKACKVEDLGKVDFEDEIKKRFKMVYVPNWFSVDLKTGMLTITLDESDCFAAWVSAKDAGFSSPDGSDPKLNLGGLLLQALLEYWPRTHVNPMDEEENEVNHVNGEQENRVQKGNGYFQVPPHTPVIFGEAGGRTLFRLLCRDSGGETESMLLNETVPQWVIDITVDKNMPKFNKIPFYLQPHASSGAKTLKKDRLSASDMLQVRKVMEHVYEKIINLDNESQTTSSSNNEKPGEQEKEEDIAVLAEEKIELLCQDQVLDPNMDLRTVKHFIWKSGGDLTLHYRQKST
Method: Certain compounds of the disclosure were assessed for USP1-UAF1 activity in a Ubiquitin Rhodamine assay as described in Biology Example 1.

HCC1954 = assay: Viability assay, BRCA1 WT cell line HCC1954; assay type: cell-based; conditions: Homo sapiens, HCC1954, viability, read-out: HCC1954 rel IC50
From the text: (§1) Table 1 also indicates IC50 values in a viability assay for a non-isogenic pair of BRCA1 mutant (column 5-MDA-MB-436) and BRCA1 WT (column 6—HCC1954) cell lines. These values indicate the effect of treatment with compound on cell survival.

MDA-MB-436 = assay: Viability assay, BRCA1 mutant cell line MDA-MB-436; assay type: cell-based; conditions: Homo sapiens, MDA-MB-436, viability, BRCA1 mutant MDA-MB-436; read-out: MDA-MB-436 rel IC50
From the text: as §1

| Compound | IC50 (monoubiquitinated PCNA) [nM] | IC50 (USP1-UAF1) [nM] | IC50 (HCC1954) [nM] | IC50 (MDA-MB-436) [nM] |
| --- | --- | --- | --- | --- |
| C=C(C)c1ccccc1-c1ncc2c(n1)n(Cc1ccc(-c3nc(C(F)(F)F)cn3C)cc1)c(=N)n2C [Example B-4, 7-methyl-9-(4-(1-methyl-4-(trifluoromethyl)-1H-imidazol-2-yl)benzyl)-2-(2-(prop-1-en-2-yl)phenyl)-7,9-dihydro-8H-purin-8-imine] | < 100 | < 30 | ≥ 10000 | < 100 |
| Cn1cc(C(F)(F)F)nc1-c1ccc(Cn2c(=N)n(C)c3cnc(-c4ccc(F)cc4OC(F)F)nc32)cc1 [Example T-001, 2-[2-(difluoromethoxy)-4-fluoro-phenyl]-7-methyl-9-[[4-[1-methyl-4-(trifluoromethyl)imidazol-2-yl]phenyl]methyl]purin-8-imine] | 250 to 10000 | 30 to 100 | 250 to 10000 | 250 to 10000 |
| CC(C)c1ccccc1-c1ncc2c(n1)n(C1(c3ccc(-c4nc(C(F)(F)F)cn4C)cc3)CC1)c(=N)n2C [Example T-003, 2-(2-isopropylphenyl)-7-methyl-9-[1-[4-[1-methyl-4-(trifluoromethyl)imidazol-2-yl]phenyl]cyclopropyl]purin-8-imine] | < 100 | < 30 | 250 to 10000 | < 100 |
| COc1cc(C(F)(F)F)nn1-c1ccc(Cn2c(=N)n(C)c3cnc(-c4ccccc4C(F)(F)F)nc32)cc1 [Example T-004] | 100 to 250 | 30 to 100 | 250 to 10000 | 250 to 10000 |
| COc1nccc(C#N)c1-c1ncc2c(n1)n(Cc1ccc(-c3nc(C(F)(F)F)cn3C)cc1)c(=N)n2C [Example T-008] | 100 to 250 | 30 to 100 | ≥ 10000 | 100 to 250 |
| Cn1cc(C(F)(F)F)nc1-c1ccc(Cn2c(=N)n(C)c3cnc(-c4cccnc4C4CC4)nc32)cc1 [Example T-009, 2-(2-cyclopropyl-3-pyridyl)-7-methyl-9-[[4-[1-methyl-4-(trifluoromethyl)imidazol-2-yl]phenyl]methyl]purin-8-imine] | 100 to 250 | 30 to 100 | ≥ 10000 | 250 to 10000 |
| Cn1cc(C(F)(F)F)nc1-c1ccc(Cn2c(=N)n(C)c3cnc(-c4cccc5c4OC(F)(F)O5)nc32)cc1 [Example T-011, 2-(2,2-difluoro-1,3-benzodioxol-4-yl)-7-methyl-9-[[4-[1-methyl-4-(trifluoromethyl)imidazol-2-yl]phenyl]methyl]purin-8-imine] | 250 to 10000 | 30 to 100 | 250 to 10000 | 250 to 10000 |
| COc1ncc(F)cc1-c1ncc2c(n1)n(Cc1ccc(-c3nc(C(F)(F)F)cn3C)cc1)c(=N)n2C [Example T-013] | 250 to 10000 | 100 to 10000 | ≥ 10000 | 250 to 10000 |
| COc1ncnc(C2CC2)c1-c1ncc2c(n1)n(Cc1ccc(-c3nc(C(F)(F)F)cn3C)cc1)c(=N)n2C [Example T-019, 2-(4-cyclopropyl-6-methoxy-pyrimidin-5-yl)-7-methyl-9-[[4-[1-methyl-4-(trifluoromethyl)imidazol-2-yl]phenyl]methyl]purin-8-imine] | < 100 | 100 to 10000 | ≥ 10000 | 100 to 250 |
| COc1cc(C)n(-c2ccc(Cn3c(=N)n(C)c4cnc(-c5ccccc5C5CC5)nc43)cc2)n1 [Example T-020] | 250 to 10000 | 100 to 10000 | 250 to 10000 | 250 to 10000 |
| Cn1cc(C(F)(F)F)nc1-c1ccc(Cn2c(=N)n(C)c3cnc(-c4ccccc4OC(F)F)nc32)cc1 [Example T-021, 2-[2-(difluoromethoxy)phenyl]-7-methyl-9-[[4-[1-methyl-4-(trifluoromethyl)imidazol-2-yl]phenyl]methyl]purin-8-imine] | < 100 | 30 to 100 | ≥ 10000 | 100 to 250 |
| Cn1cc(C(F)(F)F)nc1-c1ccc(Cn2c(=N)n(C)c3cnc(-c4cccnc4N4CC(F)C4)nc32)cc1 [Example T-023] | 250 to 10000 | 100 to 10000 | ≥ 10000 | 250 to 10000 |
| COc1cc(-c2nc(C(F)(F)F)cn2C)ccc1Cn1c(=N)n(C)c2cnc(-c3ccccc3C(F)(F)F)nc21 [Example T-029] | 100 to 250 | 100 to 10000 | 250 to 10000 | 100 to 250 |
| CC(C)c1ccccc1-c1ncc2c(n1)n(C[C@H]1CC[C@H](c3nc(C(F)(F)F)cn3C)CC1)c(=N)n2C [Example T-030] | < 100 | 100 to 10000 | 250 to 10000 | < 100 |
| CC(C)n1cc(C(F)(F)F)nc1-c1ccc(Cn2c(=N)n(C)c3cnc(-c4cccnc4OCC(F)(F)F)nc32)cc1 [Example T-031] | 250 to 10000 | 100 to 10000 | ≥ 10000 | 250 to 10000 |

The next lines start with the values.

| IC50 (monoubiquitinated PCNA) [nM] | IC50 (USP1-UAF1) [nM] | IC50 (HCC1954) [nM] | IC50 (MDA-MB-436) [nM] | Compound |
| --- | --- | --- | --- | --- |
| < 100 | < 30 | ≥ 10000 | < 100 | CC(C)c1ccccc1-c1ncc2c(n1)n(Cc1ccc(-c3nc(C(F)(F)F)cn3C)cc1)c(=N)n2C [Example B-2, 2-(2-isopropylphenyl)-7-methyl-9-(4-(1-methyl-4-(trifluoromethyl)-1H-imidazol-2-yl)benzyl)-7H-purin-8(9H)-imine] |
| 250 to 10000 | 100 to 10000 | 250 to 10000 | 250 to 10000 | Cn1cc(C(F)(F)F)nc1-c1ccc(Cn2c(=N)n(C)c3cnc(-c4ccccc4)nc32)cc1 [Example B-3, 7-methyl-9-(4-(1-methyl-4-(trifluoromethyl)-1H-imidazol-2-yl)benzyl)-2-phenyl-7,9-dihydro-8H-purin-8-imine] |
| 100 to 250 | < 30 | 250 to 10000 | 100 to 250 | Cn1cc(C(F)(F)F)nc1-c1ccc(Cn2c(=N)n(C)c3cnc(-c4c(Cl)cccc4Cl)nc32)cc1 [Example B-5, 2-(2,6-dichlorophenyl)-7-methyl-9-(4-(1-methyl-4-(trifluoromethyl)-1H-imidazol-2-yl)benzyl)-7,9-dihydro-8H-purin-8-imine] |
| 100 to 250 | 30 to 100 | ≥ 10000 | 100 to 250 | Cn1cc(C(F)(F)F)nc1-c1ccc(Cn2c(=N)n(C)c3cnc(-c4ccccc4Cl)nc32)cc1 [Example B-8, 2-(2-chlorophenyl)-7-methyl-9-(4-(1-methyl-4-(trifluoromethyl)-1H-imidazol-2-yl)benzyl)-7,9-dihydro-8H-purin-8-imine] |
| < 100 | < 30 | 250 to 10000 | < 100 | CC(C)c1c(F)cccc1-c1ncc2c(n1)n(Cc1ccc(-c3nc(C(F)(F)F)cn3C)cc1)c(=N)n2C [Example B-9, 2-(3-fluoro-2-isopropylphenyl)-7-methyl-9-(4-(1-methyl-4-(trifluoromethyl)-1H-imidazol-2-yl)benzyl)-7,9-dihydro-8H-purin-8-imine] |
| 100 to 250 | < 30 | 250 to 10000 | 100 to 250 | CC(C)c1cc(F)ccc1-c1ncc2c(n1)n(Cc1ccc(-c3nc(C(F)(F)F)cn3C)cc1)c(=N)n2C [Example B-10, 2-(4-fluoro-2-isopropylphenyl)-7-methyl-9-(4-(1-methyl-4-(trifluoromethyl)-1H-imidazol-2-yl)benzyl)-7,9-dihydro-8H-purin-8-imine] |
| < 100 | < 30 | 250 to 10000 | 100 to 250 | CC(C)c1ccc(F)cc1-c1ncc2c(n1)n(Cc1ccc(-c3nc(C(F)(F)F)cn3C)cc1)c(=N)n2C [Example B-11, 2-(5-fluoro-2-isopropylphenyl)-7-methyl-9-(4-(1-methyl-4-(trifluoromethyl)-1H-imidazol-2-yl)benzyl)-7,9-dihydro-8H-purin-8-imine] |
| 250 to 10000 | 30 to 100 | 250 to 10000 | 100 to 250 | Cc1cccc(-c2ncc3c(n2)n(Cc2ccc(-c4nc(C(F)(F)F)cn4C)cc2)c(=N)n3C)c1C(C)C [Example T-002, 2-(2-isopropyl-3-methyl-phenyl)-7-methyl-9-[[4-[1-methyl-4-(trifluoromethyl)imidazol-2-yl]phenyl]methyl]purin-8-imine] |
| 100 to 250 | < 30 | ≥ 10000 | 100 to 250 | Cc1cccc(C(C)C)c1-c1ncc2c(n1)n(Cc1ccc(-c3nc(C(F)(F)F)cn3C)cc1)c(=N)n2C [Example T-015, 2-(2-isopropyl-6-methyl-phenyl)-7-methyl-9-[[4-[1-methyl-4-(trifluoromethyl)imidazol-2-yl]phenyl]methyl]purin-8-imine] |
| < 100 | < 30 | ≥ 10000 | < 100 | COCCn1c(=N)n(Cc2ccc(-c3nc(C(F)(F)F)cn3C)cc2)c2nc(-c3ccccc3C(C)C)ncc21 [Example T-016] |
| 250 to 10000 | 30 to 100 | 250 to 10000 | 250 to 10000 | Cc1ccc(C(C)C)c(-c2ncc3c(n2)n(Cc2ccc(-c4nc(C(F)(F)F)cn4C)cc2)c(=N)n3C)c1 [Example T-018, 2-(2-isopropyl-5-methyl-phenyl)-7-methyl-9-[[4-[1-methyl-4-(trifluoromethyl)imidazol-2-yl]phenyl]methyl]purin-8-imine] |
| 250 to 10000 | 30 to 100 | 250 to 10000 | 250 to 10000 | Cn1cc(C(F)(F)F)nc1-c1ccc(Cn2c(=N)n(C)c3cnc(-c4cccc(F)c4OC(F)F)nc32)cc1 [Example T-027, 2-[2-(difluoromethoxy)-3-fluoro-phenyl]-7-methyl-9-[[4-[1-methyl-4-(trifluoromethyl)imidazol-2-yl]phenyl]methyl]purin-8-imine] |
